Assay results as given in the supplement of paper PMC10307832.

What was measured:
Test in all cases: relative viability (nuclei count vs DMSO), 5 days (fraction); higher = more cells survive
UMC-11 = system: UMC-11
Outline: (§1)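 Medians of duplicate plates are given as relative viability. That measure is the nuclei count in treated wells divided by the count in vehicle wells. Counts were taken on 4× images of lung cancer cell lines in 1536-well plates, 5 days after pin-tool dosing the day after seeding with one drug alone or a fixed anchor-drug dose plus five library-drug doses (not always all listed) in √10 steps.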

HCC-15 = system: HCC-15
Outline: as §1

NCI-H1623 = system: NCI-H1623
Outline: as §1

HCC-44 = system: HCC-44
Outline: as §1

NCI-H1395 = system: NCI-H1395
Outline: as §1

NCI-H1755 = system: NCI-H1755
Outline: as §1

NCI-H1648 = system: NCI-H1648
Outline: as §1

EKVX = system: EKVX
Outline: as §1

LCLC-103H = system: LCLC-103H
Outline: as §1

Nc1ccn([C@@H]2O[C@H](CO)[C@@H](O)[C@@H]2O)c(=O)n1 [Cytarabine] + COc1cccc2cc(-c3nc([C@H]4CC[C@H](C(=O)O)CC4)n4ncnc(N)c34)[nH]c12 [OSI-027] (partner 0.5 µM)
relative viability (UMC-11; first compound 0.005 µM): 0.314
relative viability (UMC-11; first compound 0.01581 µM): 0.418
relative viability (UMC-11; first compound 0.05 µM): 0.386
relative viability (UMC-11; first compound 0.1581 µM): 0.226
relative viability (UMC-11; first compound 0.5 µM): 0.226
relative viability (HCC-15; first compound 0.005 µM): 0.597
relative viability (HCC-15; first compound 0.01581 µM): 0.67
relative viability (HCC-15; first compound 0.05 µM): 0.669
relative viability (HCC-15; first compound 0.1581 µM): 0.56
relative viability (HCC-15; first compound 0.5 µM): 0.412
relative viability (NCI-H1623; first compound 0.005 µM): 0.372
relative viability (NCI-H1623; first compound 0.01581 µM): 0.376
relative viability (NCI-H1623; first compound 0.05 µM): 0.277
relative viability (NCI-H1623; first compound 0.1581 µM): 0.258
relative viability (NCI-H1623; first compound 0.5 µM): 0.243
relative viability (HCC-44; first compound 0.005 µM): 0.376
relative viability (HCC-44; first compound 0.01581 µM): 0.461
relative viability (HCC-44; first compound 0.05 µM): 0.413
relative viability (HCC-44; first compound 0.1581 µM): 0.189
relative viability (HCC-44; first compound 0.5 µM): 0.226
relative viability (NCI-H1395; first compound 0.005 µM): 0.592
relative viability (NCI-H1395; first compound 0.01581 µM): 0.484
relative viability (NCI-H1395; first compound 0.05 µM): 0.369
relative viability (NCI-H1395; first compound 0.1581 µM): 0.349
relative viability (NCI-H1395; first compound 0.5 µM): 0.328
relative viability (NCI-H1755; first compound 0.005 µM): 0.574
relative viability (NCI-H1755; first compound 0.01581 µM): 0.578
relative viability (NCI-H1755; first compound 0.05 µM): 0.561
relative viability (NCI-H1755; first compound 0.1581 µM): 0.318
relative viability (NCI-H1755; first compound 0.5 µM): 0.309
relative viability (NCI-H1648; first compound 0.005 µM): 0.238
relative viability (NCI-H1648; first compound 0.01581 µM): 0.266
relative viability (NCI-H1648; first compound 0.05 µM): 0.246
relative viability (NCI-H1648; first compound 0.1581 µM): 0.214
relative viability (NCI-H1648; first compound 0.5 µM): 0.263
relative viability (EKVX; first compound 0.005 µM): 0.573
relative viability (EKVX; first compound 0.01581 µM): 0.499
relative viability (EKVX; first compound 0.05 µM): 0.635
relative viability (EKVX; first compound 0.1581 µM): 0.37
relative viability (EKVX; first compound 0.5 µM): 0.22
relative viability (LCLC-103H; first compound 0.005 µM): 0.412
relative viability (LCLC-103H; first compound 0.01581 µM): 0.411
relative viability (LCLC-103H; first compound 0.05 µM): 0.511
relative viability (LCLC-103H; first compound 0.1581 µM): 0.418
relative viability (LCLC-103H; first compound 0.5 µM): 0.473
